In patent US11186577B2, “Vasopressin receptor antagonists and products and methods related thereto” (BlackThorn Therapeutics, Inc., priority 2017, dated 2021):
Like-named read-outs stand apart in the source and are kept apart here.

Key:
[1] = target: human Oxytocin Receptor (hOTR) (Homo sapiens (Human), UniProt P30559); test: Oxytocin receptor antagonist assay (oxytocin-evoked calcium, FLIPR, CHEM-1-hOTR cells); format: cell-based; conditions: read-out: OT IC50
Experimental: This assay was performed in CHEM-1 cells expressing the human Oxytocin Receptor (hOTR) to determine the inhibitory effect of the compounds of the invention on the human Oxytocin receptor. Oxytocin evokes an increase in intracellular calcium in CHEM-1-hOTR cells which is measured in a fluorescence assay on the FLIPR^TETRA using calcium sensitive dyes. Test compounds were assessed for their ability to affect the magnitude of the response to oxytocin, with antagonists showing a concentration-dependent reduction in the oxytocin-mediated fluorescence.
CHEM-1-hOTR ready was used to assay frozen cells (Eurofins #HTS090RTA) which are supplied with a proprietary Media Component.
Cells were thawed in a 37° C. water bath and diluted with the supplied Media Component to a final volume of 10 ml. The cell suspension was centrifuged at 1000 rpm for 3 min at room temperature and the supernatant was discarded. The cell pellet was resuspended in Media Component (10.5 ml) and the cells (25 μL) were dispensed into a poly-D-lysine coated black, clear bottomed, 384-well plate. The plates were incubated overnight at 37° C., 5% CO2.
At the start of each assay day the potency of oxytocin was assessed and an EC80 concentration was determined for subsequent compound profiling. Assays were performed using a two-step addition protocol on the FLIPR^TETRA; first addition of 5 μl of control or test compound at 10× final in assay buffer with 15 min incubation at 37° C., 5% CO2 followed by 10 μl of oxytocin at 6× final concentration in assay buffer. Changes in fluorescence were monitored for 3 min after both additions on the FLIPR^TETRA using 470-495 nm excitation and 515-575 nm emission wavelengths. The assay buffer consisted of HBSS (+Ca/+Mg) supplemented with 20 mM HEPES, and for the preparation of the oxytocin agonist only, 0.1% w/v bovine serum albumin. The assay was initiated by the removal of growth media from the cells and replaced with 45 μl of Calcium-6 dye (Molecular Devices) prepared at 1× in assay buffer. Cells were loaded with dye for 60-90 min at 37° C., 5% CO2 before initiation of the FLIPR^TETRA protocol. […] For compound profiling, test compounds were first serially diluted in DMSO (10-point curve, 1:3 dilutions) then diluted 33.3-fold in assay buffer prior to addition to the dye loaded cells on the FLIPR^TETRA. At the end of the incubation period 10 μl of oxytocin in assay buffer containing 0.1% BSA was added at the previously determined EC80 concentration.
In-plate controls for the assay include a L-368,899 concentration-response curve as the reference OTR antagonist and an oxytocin concentration-response curve to confirm the reproducibility of the EC80 used for the compound challenge.

[2] = target: human Arginine Vasopressin Receptor 1a (AVPR1a) (Homo sapiens (Human), UniProt P37288); test: Vasopressin V1A receptor antagonist assay (AVP-evoked calcium, FLIPR, CHO-AVPR1a cells); format: cell-based
Experimental: The purpose of this assay was to determine the inhibitory effect of synthesized compounds on the Vasopressin V1a receptor. The assay as performed in Chinese Hamster Ovary (CHO) cells expressing the human Arginine Vasopressin Receptor 1a (AVPR1a). Arginine Vasopressin (AVP) evokes an increase in intracellular calcium in CHO-AVPR1a cells which is measured in a fluorescence assay on the FLIPR^TETRA using calcium sensitive dyes. Test compounds were assessed for their ability to affect the magnitude of the response to AVP, with antagonists showing a concentration-dependent reduction in the AVP-mediated fluorescence. Compounds were tested in duplicate in a 10-point, 1:3 dilution series starting at a nominal concentration of 3 μM in the assay.
CHO-AVPR1a cells were maintained in routine culture in T175 Flasks at 37° C., 5% CO2. The growth medium consists of Ham's F12 media supplemented with 10% v/v fetal bovine serum, 1× non-essential amino acids, and 0.4 mg/ml Geneticin G418.
On day one, cells were harvested from T175 flasks when they are 80-90% confluent by first washing the cell monolayer with PBS and then dissociated using trypsin 0.05%/EDTA (3 mL for a T175 Flask). The flasks were incubated at room temperature until the cells detached. To the cell suspension, 10 ml of growth media was added and the cell density determined using the Vi-Cell automated cell counter. The cells were spun at 1000 rpm for 3 minutes, then the supernatant was carefully removed and discarded. The cell pellet was re-suspended at 6.0e^5 cells/ml in growth media. 25 μL of cells in growth media was dispensed into each well (15,000 cells per well) of a poly-D-lysine coated black, clear bottomed, 384-well plate. The plates were incubated at 37° C., 5% CO2 overnight.
At the start of each assay day, the potency of AVP was assessed and an EC80 concentration determined for subsequent compound profiling. Assays were performed using a two-step addition protocol on the FLIPR^TETRA; first addition of 5 μl of control or test compound at 10× final in assay buffer with 15 min incubation at 37° C., 5% CO2 followed by 10 μl of AVP at 6× final concentration in assay buffer. […] The assay buffer consisted of HBSS (+Ca/+Mg) supplemented with 20 mM HEPES, and for the preparation of the AVP agonist only, 0.1% w/v bovine serum albumin. The assay was initiated by the removal of growth media from the cells and replacement with 45 μl of Calcium-6 dye (Molecular Devices) prepared at 1× in assay buffer. Cells are loaded with dye for 60-90 min at 37° C., 5% CO2 before initiation of the FLIPR^TETRA protocol. […] At the end of the incubation period, 10 μl of AVP in assay buffer containing 0.1% BSA was added at the previously determined EC80 concentration.

human Oxytocin Receptor (hOTR), sequence (P30559 whole entry): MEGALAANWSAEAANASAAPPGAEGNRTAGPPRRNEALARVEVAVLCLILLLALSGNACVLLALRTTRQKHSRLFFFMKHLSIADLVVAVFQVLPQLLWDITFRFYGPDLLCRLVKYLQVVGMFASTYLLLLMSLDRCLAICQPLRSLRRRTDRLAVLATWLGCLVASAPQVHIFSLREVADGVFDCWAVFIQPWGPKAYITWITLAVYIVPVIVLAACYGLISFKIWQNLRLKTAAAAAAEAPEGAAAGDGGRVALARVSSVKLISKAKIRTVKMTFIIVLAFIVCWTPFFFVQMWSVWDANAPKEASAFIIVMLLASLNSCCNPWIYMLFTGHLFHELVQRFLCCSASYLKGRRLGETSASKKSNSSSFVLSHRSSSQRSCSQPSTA
human Arginine Vasopressin Receptor 1a (AVPR1a), sequence (P37288 whole entry): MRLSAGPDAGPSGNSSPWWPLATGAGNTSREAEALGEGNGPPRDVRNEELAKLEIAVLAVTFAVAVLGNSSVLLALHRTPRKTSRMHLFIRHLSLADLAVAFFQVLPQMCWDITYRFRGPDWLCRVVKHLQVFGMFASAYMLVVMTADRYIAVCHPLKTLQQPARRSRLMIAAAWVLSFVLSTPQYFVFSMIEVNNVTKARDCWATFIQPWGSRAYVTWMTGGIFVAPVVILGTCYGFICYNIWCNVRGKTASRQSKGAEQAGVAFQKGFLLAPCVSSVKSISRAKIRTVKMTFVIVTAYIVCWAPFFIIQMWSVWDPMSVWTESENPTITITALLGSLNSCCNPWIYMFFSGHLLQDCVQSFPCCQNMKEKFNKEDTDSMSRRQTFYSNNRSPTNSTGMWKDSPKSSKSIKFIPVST

SMILES: CN1Cc2cc(Cl)ccc2-n2c(nnc2C2CC3(C2)CN(c2cccnn2)C3)C1 [compound 13]
- IC50 [1]: > 1000 nM
- IC50 [2]: 100 to 500 nM

SMILES: CC1c2nnc(C3CC4(C3)CN(c3ccc(F)cn3)C4)n2-c2ccc(Cl)cc2CN1C(=O)OC1CC1 (stereo not shown) [compound 191, cyclopropyl 8-chloro-1-(2-(5-fluoropyridin-2-yl)-2-azaspiro[3.3]heptan-6-yl)-4-methyl-4H-benzo[f][1,2,4]triazolo[4,3-a][1,4]diazepine-5(6H)-carboxylate]
- IC50 [1]: 500 to 1000 nM
- IC50 ([2]; read-out: V1a IC50): < 100 nM

SMILES: CCOC(=O)N1Cc2cc(Cl)ccc2-n2c(C3CC4(C3)CN(c3nccc(C(F)F)n3)C4)nnc2C1C (stereo not shown) [compound 189]
- IC50 [1]: > 1000 nM
- IC50 ([2]; read-out: V1a IC50): < 100 nM

SMILES: CCC(=O)N1Cc2cc(Cl)ccc2-n2c(nnc2C2CC3(C2)CN(c2ncc(F)cn2)C3)C1 [compound 157]
- IC50 [1]: > 1000 nM
- IC50 ([2]; read-out: V1a IC50): < 100 nM

SMILES: CC(=O)N1CC2(CC(c3nnc4n3-c3ccc(Cl)cc3CN(C)C4)C2)C1 [compound 15]
- IC50 [1]: > 1000 nM
- IC50 ([2]; read-out: V1a IC50): > 1000 nM

SMILES: Cc1ccc(N2CC3(CC(c4nnc5n4-c4ccc(Cl)cc4CN(C)C5)C3)C2)nc1 [compound 12]
- IC50 [1]: > 1000 nM
- IC50 [2]: 100 to 500 nM

SMILES: CN1Cc2cc(Cl)ccc2-n2c(nnc2C2CC3(C2)CN(C(=O)C2COC2)C3)C1 [compound 14]
- IC50 [1]: > 1000 nM
- IC50 ([2]; read-out: V1a IC50): > 1000 nM

SMILES: Cc1cccc(N2CC3(CC(c4nnc5n4-c4ccc(Cl)cc4CN(C)C5)C3)C2)n1 [compound 6]
- IC50 [1]: > 1000 nM
- IC50 ([2]; read-out: V1a IC50): < 100 nM

SMILES: COc1cccc(N2CC3(CC(c4nnc5n4-c4ccc(Cl)cc4CN(C)C5)C3)C2)n1 [compound 7]
- IC50 [1]: > 1000 nM
- IC50 [2]: 100 to 500 nM

SMILES: CN1Cc2cc(Cl)ccc2-n2c(nnc2C2CC3(C2)CN(c2cccnc2)C3)C1 [compound 5]
- IC50 [1]: > 1000 nM
- IC50 [2]: 100 to 500 nM

SMILES: CN1Cc2cc(Cl)ccc2-n2c(nnc2C2CC3(C2)CN(C(=O)OC(C)(C)C)C3)C1 [compound 9]
- IC50 [1]: 500 to 1000 nM
- IC50 [2]: 100 to 500 nM

SMILES: CN1Cc2cc(Cl)ccc2-n2c(nnc2C2CC3(C2)CN(c2cncc(F)c2)C3)C1 [compound 10]
- IC50 [1]: > 1000 nM
- IC50 [2]: 100 to 500 nM

SMILES: CCC(=O)N1Cc2cc(Cl)ccc2-n2c(nnc2C2CC3(C2)CN(C(=O)C2CCC2)C3)C1 [compound 37]
- IC50 [1]: > 1000 nM
- IC50 ([2]; read-out: V1a IC50): < 100 nM

SMILES: CCC(=O)N1Cc2cc(Cl)ccc2-n2c(nnc2C2CC3(C2)CN(c2cccnn2)C3)C1 [compound 108]
- IC50 [1]: > 1000 nM
- IC50 ([2]; read-out: V1a IC50): < 100 nM

SMILES: O=C(C(F)F)N1Cc2cc(Cl)ccc2-n2c(nnc2C2CC3(C2)CN(C(=O)C2CC2)C3)C1 [compound 138]
- IC50 [1]: > 1000 nM
- IC50 ([2]; read-out: V1a IC50): < 100 nM

SMILES: COC(=O)N1Cc2cc(Cl)ccc2-n2c(C3CC4(C3)CN(c3ncncc3F)C4)nnc2C1C (stereo not shown) [compound 188]
- IC50 [1]: 100 to 500 nM
- IC50 ([2]; read-out: V1a IC50): < 100 nM

SMILES: CCOC(=O)N1Cc2cc(Cl)ccc2-n2c(nnc2C2CC3(C2)CN(c2ccccn2)C3)C1 [compound 68]
- IC50 [1]: > 1000 nM
- IC50 ([2]; read-out: V1a IC50): < 100 nM

SMILES: COc1ccc(N2CC3(CC(c4nnc5n4-c4ccc(Cl)cc4CN(C)C5)C3)C2)nc1 [compound 11]
- IC50 [1]: > 1000 nM
- IC50 [2]: 500 to 1000 nM

SMILES: CC1c2nnc(C3CC4(C3)CN(c3ccc(F)cn3)C4)n2-c2ccc(Cl)cc2CN1C(=O)OC(CF)CF (single isomer, unassigned) [Cpd 203B]
- IC50 [1]: > 1000 nM
- IC50 ([2]; read-out: V1a IC50): > 1000 nM

SMILES: CN1Cc2cc(Cl)ccc2-n2c(nnc2C2CC3(C2)CN(C(=O)C2CCO2)C3)C1 (stereo not shown) [compound 33]
- IC50 ([2]; read-out: V1a IC50): > 1000 nM

SMILES: CCC(=O)N1Cc2cc(Cl)ccc2-n2c(nnc2C2CC3(C2)CN(c2cccc(C)n2)C3)C1 [compound 109]
- IC50 [1]: > 1000 nM
- IC50 ([2]; read-out: V1a IC50): < 100 nM

SMILES: COC(=O)N1Cc2cc(Cl)ccc2-n2c(C3CC4(C3)CN(c3ncncc3F)C4)nnc2C1C (stereo not shown) [compound 183]
- IC50 [1]: 100 to 500 nM
- IC50 [2]: 100 to 500 nM

SMILES: N#Cc1ccnc(N2CC3(CC(c4nnc5n4-c4ccc(Cl)cc4CN(C4CC4)C5)C3)C2)c1 [compound 232]
- IC50 ([2]; read-out: V1a IC50): < 100 nM

SMILES: FC(F)(F)Oc1cccnc1N1CC2(CC(c3nnc4n3-c3ccc(Cl)cc3CN(C3CC3)C4)C2)C1 [compound 272]
- IC50 ([2]; read-out: V1a IC50): < 100 nM

SMILES: CC1c2nnc(C3CC4(C3)CN(c3ccccn3)C4)n2-c2ccc(Cl)cc2CN1C(=O)C1(F)CC1 (stereo not shown) [compound 181]
- IC50 ([2]; read-out: V1a IC50): < 100 nM

SMILES: COC(=O)N1Cc2cc(Cl)ccc2-n2c(C3CC4(C3)CN(c3ncc(F)cn3)C4)nnc2C1C (single isomer, unassigned) [Cpd 170B]
- IC50 ([2]; read-out: V1a IC50): 500 to 1000 nM

SMILES: CCC(=O)N1Cc2cc(Cl)ccc2-n2c(nnc2C2CC3(C2)CN(c2ccc(F)nn2)C3)C1 [compound 112]
- IC50 [1]: > 1000 nM
- IC50 ([2]; read-out: V1a IC50): < 100 nM
